Experimental data taken from ChEMBL document CHEMBL5150053, “Carboxymethyl tethered poly(disubstituted)triazoles built on nucleoside skeletons: A unique class of ribonuclease A inhibitors designed using chemical logic” (Bioorg Med Chem, 2022).
Active and inactive are the calls of the source. No cut-off for these calls is given here.

Key:
[1] = Competitive reversible inhibition of bovine pancreatic RNase A using 2',3'-cCMP as substrate assessed as inhibition constant by spectrophotometric analysis; set-up: species or system Bos taurus
[2] = Competitive inhibition of bovine pancreatic RNase A using 2',3'-cCMP as substrate assessed as inhibition constant by spectrophotometric analysis; set-up: species or system Bos taurus
Bos taurus [3] = species: Bos taurus; test: Inhibition of bovine pancreatic RNase A using tRNA as substrate assessed as substrate degradation preincubated with compound for 3 hrs followed by substrate addition and measured after 30 mins by ethidium bromide staining based agarose gel electrophoresis analysis; settings: time 3.5 hrs
[4] = Linear mixed type inhibition of bovine pancreatic RNase A using 2',3'-cCMP as substrate assessed as inhibition constant by spectrophotometric analysis; set-up: species or system Bos taurus
[5] = Hyperbolic partial competitive inhibition of bovine pancreatic RNase A using 2',3'-cCMP as substrate assessed as inhibition constant by spectrophotometric analysis; set-up: species or system Bos taurus
[6] = Uncompetitive inhibition of bovine pancreatic RNase A using 2',3'-cCMP as substrate assessed as inhibition constant by spectrophotometric analysis; set-up: species or system Bos taurus
Bos taurus [7] = species: Bos taurus; test: Uncompetitive inhibition of bovine pancreatic RNase A using 2',3'-cCMP as substrate assessed as Michaelis-Menten constant (Km) by Lineweaver-burk plot analysis (reference value: 9.35 x 10^-4 M)

Row | Ki [1] [µM] | Ki [2] [µM] | inhibition (Bos taurus [3]) | SMILES | other results
1 | 46 | – | – | O=C(O)c1nnn(C[C@H]2O[C@@H](OCc3cn(CCS(=O)(=O)O)nn3)[C@H](O)[C@@H]2O)c1C(=O)O | –
2 | 0.96 | – | – | O=c1ccn([C@@H]2O[C@H](CO)[C@@H](S(=O)(=O)O)[C@@H]2O)c(=O)[nH]1 | –
3 | – | 74.1 | Active | O=C(O)Cn1cc(COC[C@H]2O[C@@H](n3ccc(=O)n(Cc4cn(CC(=O)O)nn4)c3=O)[C@H](OCc3cn(CC(=O)O)nn3)[C@@H]2OCc2cn(CC(=O)O)nn2)nn1 | –
4 | – | – | Active | Cc1cn([C@H]2C[C@H](OCc3cn(CC(=O)O)nn3)[C@@H](COCc3cn(CC(=O)O)nn3)O2)c(=O)[nH]c1=O | Ki [4]: 211 µM
5 | – | – | Active | Cc1cn([C@H]2C[C@H](OCc3cn(CC(=O)O)nn3)[C@@H](COCc3cn(CC(=O)O)nn3)O2)c(=O)n(Cc2cn(CC(=O)O)nn2)c1=O | Ki [5]: 2.3 µM
6 | – | 352 | Active | Cc1cn([C@H]2C[C@H](OCc3cn(CC(=O)O)nn3)[C@@H](CO)O2)c(=O)n(Cc2cn(CC(=O)O)nn2)c1=O | –
7 | – | 198 | Active | O=C(O)Cn1cc(COC[C@H]2O[C@@H](n3ccc(=O)n(Cc4cn(CC(=O)O)nn4)c3=O)[C@H](O)[C@@H]2O)nn1 | –
8 | – | – | Active | Cc1cn([C@H]2C[C@H](O)[C@@H](CO)O2)c(=O)n(Cc2cn(CC(=O)O)nn2)c1=O | Ki [6]: 232 µM; Km (Bos taurus [7]): 585 µM
9 | 1.75 | – | – | Nc1ccn([C@@H]2O[C@H](CO)[C@@H](S(=O)(=O)CC(=O)O)[C@H]2O)c(=O)n1 | –
10 | 2 | – | – | O=C(O)CS(=O)(=O)[C@H]1[C@@H](O)[C@H](n2ccc(=O)[nH]c2=O)O[C@@H]1CO | –
11 | 2.08 | – | – | Cc1cn([C@H]2C[C@H](S(=O)(=O)O)[C@@H](CO)O2)c(=O)[nH]c1=O | –
12 | – | 55.4 | Active | O=C(O)Cn1cc(Cn2c(=O)ccn([C@@H]3O[C@H](CO)[C@@H](O)[C@H]3O)c2=O)nn1 | –
13 | 29 | – | – | O=S(=O)(O)CCn1cc(CO[C@@H]2O[C@H](Cn3cc(CS(=O)(=O)O)nn3)[C@@H](O)[C@H]2O)nn1 | –
